Experimental data reported in ChEMBL document CHEMBL1134017, “Heterocycle-based MMP inhibitors with P2' substituents” (Bioorg Med Chem Lett, 2001).

How the values were obtained:
Stromelysin-1 = Stromelysin-1 (Homo sapiens, UniProt P08254)
Description: Inhibition of Matrix metalloprotease-3

[1] = biological target: Matrix metalloproteinase-9 (Homo sapiens, UniProt P14780)
Description: Inhibition of Matrix metalloprotease-9

Matrilysin [2] = biological target: T1, Matrilysin (Homo sapiens, UniProt P09237)
T1 sequence (P09237 whole entry): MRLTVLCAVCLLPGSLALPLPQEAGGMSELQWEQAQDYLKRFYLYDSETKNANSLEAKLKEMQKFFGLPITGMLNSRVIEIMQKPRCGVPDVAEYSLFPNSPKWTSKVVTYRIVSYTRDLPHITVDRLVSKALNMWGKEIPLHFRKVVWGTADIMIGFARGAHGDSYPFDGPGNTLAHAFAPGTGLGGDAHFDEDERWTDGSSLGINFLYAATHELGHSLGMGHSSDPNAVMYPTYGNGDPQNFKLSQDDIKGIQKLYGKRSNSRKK
Description: Inhibition of Matrix metalloprotease-7

Interstitial collagenase = biological target: T2, Interstitial collagenase (Homo sapiens, UniProt P03956)
T2 sequence (P03956 whole entry): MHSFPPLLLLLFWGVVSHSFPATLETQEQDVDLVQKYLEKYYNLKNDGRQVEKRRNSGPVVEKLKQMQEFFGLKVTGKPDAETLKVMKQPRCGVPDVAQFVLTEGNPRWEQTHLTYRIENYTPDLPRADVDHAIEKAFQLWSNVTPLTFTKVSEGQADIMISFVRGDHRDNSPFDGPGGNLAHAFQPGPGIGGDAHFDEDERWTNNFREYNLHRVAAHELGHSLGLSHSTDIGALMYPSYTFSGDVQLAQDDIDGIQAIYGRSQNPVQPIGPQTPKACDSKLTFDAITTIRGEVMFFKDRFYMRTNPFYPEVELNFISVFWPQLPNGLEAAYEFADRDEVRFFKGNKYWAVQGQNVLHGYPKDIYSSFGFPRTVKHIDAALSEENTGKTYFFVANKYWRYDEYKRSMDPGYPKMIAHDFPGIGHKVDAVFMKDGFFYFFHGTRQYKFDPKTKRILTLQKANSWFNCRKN
Description: Inhibition of human Matrix metalloprotease-1

Neutrophil collagenase = Neutrophil collagenase (Homo sapiens, UniProt P22894)
Chain of Neutrophil collagenase (P22894 whole entry): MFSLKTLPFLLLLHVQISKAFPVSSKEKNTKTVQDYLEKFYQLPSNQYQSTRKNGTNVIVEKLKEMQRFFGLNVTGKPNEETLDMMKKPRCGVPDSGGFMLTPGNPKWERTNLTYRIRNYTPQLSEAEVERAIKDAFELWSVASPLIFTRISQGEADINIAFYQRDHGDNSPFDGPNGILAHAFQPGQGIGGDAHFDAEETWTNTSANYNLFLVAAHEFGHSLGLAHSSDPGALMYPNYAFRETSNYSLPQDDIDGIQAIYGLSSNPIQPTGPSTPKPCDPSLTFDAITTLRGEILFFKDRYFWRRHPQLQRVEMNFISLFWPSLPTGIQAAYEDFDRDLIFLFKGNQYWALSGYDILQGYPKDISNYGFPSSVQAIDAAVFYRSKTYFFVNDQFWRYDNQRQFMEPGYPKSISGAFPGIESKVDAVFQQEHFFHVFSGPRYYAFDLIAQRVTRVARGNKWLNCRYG
Description: Inhibition of Matrix metalloprotease-8

Collagenase 3 = Collagenase 3 (Rattus norvegicus, UniProt P23097)
Description: Inhibition of Matrix metalloprotease-13

Matrilysin [3] = biological target: T1, Matrilysin; remark: listed apart in the source
Description: Inhibition of Matrix metalloprotease-7

Chain of Stromelysin-1 (P08254 whole entry): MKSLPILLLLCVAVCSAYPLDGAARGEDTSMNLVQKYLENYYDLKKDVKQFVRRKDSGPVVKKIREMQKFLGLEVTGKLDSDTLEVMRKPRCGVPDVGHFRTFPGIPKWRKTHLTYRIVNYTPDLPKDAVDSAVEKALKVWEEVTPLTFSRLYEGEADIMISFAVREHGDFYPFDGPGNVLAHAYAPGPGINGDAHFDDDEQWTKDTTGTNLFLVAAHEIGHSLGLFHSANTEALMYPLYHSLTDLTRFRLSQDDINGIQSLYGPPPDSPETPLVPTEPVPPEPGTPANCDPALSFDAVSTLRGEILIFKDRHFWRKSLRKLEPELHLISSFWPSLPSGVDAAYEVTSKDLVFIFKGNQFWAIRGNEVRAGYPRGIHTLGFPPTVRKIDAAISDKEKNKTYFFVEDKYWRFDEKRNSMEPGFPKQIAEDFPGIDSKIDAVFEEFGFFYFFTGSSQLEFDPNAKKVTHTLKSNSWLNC
Chain of Matrix metalloproteinase-9 (P14780 whole entry): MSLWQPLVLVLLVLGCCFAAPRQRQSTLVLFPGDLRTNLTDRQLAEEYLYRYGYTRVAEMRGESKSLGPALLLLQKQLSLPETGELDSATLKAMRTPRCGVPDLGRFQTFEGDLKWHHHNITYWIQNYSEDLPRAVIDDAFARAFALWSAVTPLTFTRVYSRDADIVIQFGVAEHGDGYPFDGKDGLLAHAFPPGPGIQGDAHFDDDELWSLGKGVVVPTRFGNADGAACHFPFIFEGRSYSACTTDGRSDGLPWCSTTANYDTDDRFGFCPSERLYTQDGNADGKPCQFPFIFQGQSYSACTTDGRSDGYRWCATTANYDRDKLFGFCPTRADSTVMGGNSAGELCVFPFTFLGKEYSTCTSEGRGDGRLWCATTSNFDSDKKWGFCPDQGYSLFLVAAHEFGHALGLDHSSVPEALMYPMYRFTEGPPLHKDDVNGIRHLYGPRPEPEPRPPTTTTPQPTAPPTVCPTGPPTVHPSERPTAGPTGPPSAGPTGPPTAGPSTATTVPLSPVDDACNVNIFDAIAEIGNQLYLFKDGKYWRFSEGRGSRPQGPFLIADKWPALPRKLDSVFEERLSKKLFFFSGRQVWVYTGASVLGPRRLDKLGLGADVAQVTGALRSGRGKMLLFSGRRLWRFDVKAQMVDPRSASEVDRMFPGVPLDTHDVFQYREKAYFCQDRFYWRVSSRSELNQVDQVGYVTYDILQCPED

SMILES | IC50 (Stromelysin-1) [nM] | IC50 [1] [nM] | IC50 (Matrilysin [2]) [nM] | IC50 (Interstitial collagenase) [nM] | IC50 (Neutrophil collagenase) [nM] | IC50 (Collagenase 3) [nM] | IC50 (Matrilysin [3]) [nM]
COc1ccc(S(=O)(=O)N2CCN(Cc3ccccc3)C(=O)C[C@@H]2C(=O)NO)cc1 | 3.3 | 1 | 88 | 13.6 | 1.5 |  | 
COc1ccc(S(=O)(=O)N2CN(Cc3ccccc3)C(=O)C[C@@H]2C(=O)NO)cc1 |  | 6.8 | > 10000 | 22.2 | 6.4 |  | 
COc1ccc(S(=O)(=O)N2CCN(C(C)C)C(=O)C[C@@H]2C(=O)NO)cc1 | 6.5 | 4.1 | 369 | 22 | 3.7 | 1.9 | 
COc1ccc(S(=O)(=O)N2CCN(S(=O)(=O)c3cn(C)cn3)CC[C@@H]2C(=O)NO)cc1 | 39.2 | 5.5 |  | 346 | 6.6 | 2.4 | 2780
COc1ccc(S(=O)(=O)N2CC[C@H](C(=O)NO)N(S(=O)(=O)c3ccc(OC)cc3)CC2)cc1 | 6.3 |  |  | 28.9 | 1.8 | 0.84 | 905
COCCN1CN(S(=O)(=O)c2ccc(OC)cc2)[C@@H](C(=O)NO)CC1=O | 180 | 52.5 | 10000 | 696 | 102 |  | 
COc1ccc(S(=O)(=O)N2CCN(C(=O)OCc3ccccc3)CC[C@@H]2C(=O)NO)cc1 | 14 | 1.8 |  | 97 | 3.3 | 2.1 | 737
COc1ccc(S(=O)(=O)N2CN(C)C(=O)C[C@@H]2C(=O)NO)cc1 |  | 24.1 | > 10000 | 2200 | 47.3 | 7.9 | 
COc1ccc(S(=O)(=O)N2CN(C(C)C)C(=O)C[C@@H]2C(=O)NO)cc1 |  | 4.2 | 3460 | 643 | 6.3 | 2.9 | 
COc1ccc(S(=O)(=O)N2C[C@@H]3CCCN3C(=O)C[C@@H]2C(=O)NO)cc1 | 3.4 |  |  | 1.2 |  | 2 | 
COc1ccc(S(=O)(=O)N2CN(C(C)(C)C)C(=O)C[C@@H]2C(=O)NO)cc1 |  | 1.1 | 909 | 320 | 1.5 | 0.34 | 
COc1ccc(S(=O)(=O)N2CN(C3CCCCC3)C(=O)C[C@@H]2C(=O)NO)cc1 |  | 3.3 | 776 | 465 | 2.8 | 0.75 | 
